Measurements as given in US10669238B2, “Irreversible bruton's tyrosine kinase inhibitor” (HEFEI INSTITUTES OF PHYSICAL SCIENCE, CHINESE ACADEMY OF …, priority 2016, dated 2020).

target: BTK protein kinase (Homo sapiens, UniProt Q06187); experiment: In vitro enzymatic activity against BTK (ADP-Glo); type: biochemical; conditions: compound with BTK 4 hours at room temperature; ATP 10 μM, 37° C. 1 hour; values given in μM
Protocol: In vitro enzymatic activity of the compounds against BTK was determined in a experimental assay of in vitro enzymatic activity using […] kit (purchased from Progema, USA).
9 μL of BTK protein kinase (at a concentration of 1.5 ng/μL) was used to react with compounds (1 μL) shown in the following table that were diluted three times in gradient at room temperature for 4 hours (the final concentration of the compound being 10 μM, 3 μM, 1 μM, 0.3 μM, 0.1 μM, 0.03 μM, 0.01 μM, 0.003 μM);
2 μL of ATP and 3 μL of the substrate Poly(4:1 Glu, Tyr)Peptide (Promega, USA) (the final concentrations being 10 μM and 0.2 μg/μL, respectively) were added to allow reaction at 37° C. for 1 hour;
5 μL of BTK kinase solution after reaction was taken and added into 5 μL of ADP-Glo™ (Promega, USA) reagent to allow reaction at room temperature for 40 mins so as to terminate the kinase reaction and exhaust the remaining ATP;
10 μL kinase detecting reagent was added to convert ADP to ATP, and newly synthesized ATP was detected using coupled luciferase/[…] reaction, then the IC50 values were calculated by using a plotting method based on the Envision reading.

Sequence of BTK protein kinase (Q06187 whole entry): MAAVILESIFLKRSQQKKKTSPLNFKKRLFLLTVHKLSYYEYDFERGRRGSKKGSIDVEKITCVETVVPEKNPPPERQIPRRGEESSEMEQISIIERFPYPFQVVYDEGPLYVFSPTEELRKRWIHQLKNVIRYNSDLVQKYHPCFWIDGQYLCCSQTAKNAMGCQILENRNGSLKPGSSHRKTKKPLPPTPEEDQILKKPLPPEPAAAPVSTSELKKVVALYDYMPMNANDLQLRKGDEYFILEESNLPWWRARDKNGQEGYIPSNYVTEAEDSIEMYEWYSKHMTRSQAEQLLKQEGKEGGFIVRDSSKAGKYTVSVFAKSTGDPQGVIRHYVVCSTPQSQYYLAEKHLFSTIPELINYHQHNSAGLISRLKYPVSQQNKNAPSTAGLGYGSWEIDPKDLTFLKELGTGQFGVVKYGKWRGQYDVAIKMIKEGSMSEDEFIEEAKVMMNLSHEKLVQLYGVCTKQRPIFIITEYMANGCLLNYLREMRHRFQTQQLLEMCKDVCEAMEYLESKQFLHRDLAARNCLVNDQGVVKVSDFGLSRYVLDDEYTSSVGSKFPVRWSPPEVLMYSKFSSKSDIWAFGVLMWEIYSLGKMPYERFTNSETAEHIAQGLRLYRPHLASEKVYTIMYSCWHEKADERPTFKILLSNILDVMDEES

With `Cc1c(NC(=O)c2ccc(C(C)(C)C)cc2)cccc1-c1cc(Nc2cccc(NC(=O)CCl)c2)c(=O)n(C)c1` [Compound 22, N-(3-(5-((3-chloroacetamidephenyl)amino)-1-methyl-6-oxo-1,6-dihydropyridin-3-yl)-2-methylphenyl)-4-(tert-butyl)benzamide] the IC50 was 5.53 µM.

same assay, conditions: compound with BTK 4 hours at room temperature; ATP 10 μM, 37° C. 1 hour; values in nM

First: C=CC(=O)Nc1cc(Nc2cc(-c3cccc(NC(=O)c4cc5ccccc5s4)c3C)cn(C)c2=O)ccc1N1CCN(C(C)=O)CC1 [Compound 92, N-(3-(5-((4-(4-acetylpiperazin-1-yl)-3-acrylamidephenyl)amino)-1-methyl-6-oxo-1,6-dihydropyridin-3-yl)-2-methylphenyl)benzo[b]thiophene-2-carboxamide]
Second: C=CC(=O)Nc1cc(Nc2cc(-c3cccc(NC(=O)c4ccc(N(C)C)cc4)c3C)cn(C)c2=O)ccc1N1CCN(CC)CC1 [Compound 74, N-(3-(5-((3-acrylamide-4-(4-ethylpiperazin-1-yl)phenyl)amino)-1-methyl-6-oxo-1,6-dihydropyridin-3-yl)-2-methylphenyl)-4-(dimethylamino)benzoylamide]
The IC50 of the first is 3.1-fold higher: 0.0717 µM for the first, 0.023 µM for the second.

Compared with `C=CC(=O)Nc1cc(Nc2cc(-c3cccc(NC(=O)c4ccc(C(C)(C)C)cc4)c3C)cn(C)c2=O)ccc1C(=O)N1CCCC1` [Compound 31, N-(3-(5-((3-acrylamide-4-(pyrrolidin-1-carbonyl)phenyl)amino)-1-methyl-6-oxo-1,6-dihydropyridin-3-yl)-2-methylphenyl)-4-(tert-butyl)benzamide], `C=CC(=O)Nc1cc(Nc2cc(-c3cccc(NC(=O)c4ccc(C)cc4)c3C)cn(C)c2=O)ccc1C(=O)N1CCOCC1` [Compound 9, N-(3-(5-((3-acrylamide-4-(morpholin-4-carbonyl)phenyl)amino)-1-methyl-6-oxo-1,6-dihydropyridin-3-)-2-methylphenyl)-4-(methyl)benzoylamide] is 4.7-fold higher in IC50: 0.019 µM for the first, 0.0889 µM for the second. The first is the more potent here.

First: C=CC(=O)Nc1cc(Nc2cc(-c3cccc(NC(=O)c4cc5c(s4)CCCC5)c3C)cn(C)c2=O)ccc1-n1cccn1 [Compound 86, N-(3-(5-((3-acrylamide-4-(1H-pyrazol-1-yl)phenyl)amino)-1-methyl-6-oxo-1,6-dihydropyridin-3-yl)-2-methylphenyl)-4,5,6,7-tetrahydrobenzo[b]thiophene-2-carboxamide]
Second: C=CC(=O)Nc1cc(Nc2cc(-c3cccc(NC(=O)c4cc5c(s4)CCCC5)c3C)cn(C)c2=O)ccc1N1CCC(OC)CC1 [Compound 88, N-(3-(5-((3-acrylamide-4-(4-methoxypiperidin-1-yl)phenyl)amino)-1-methyl-6-oxo-1,6-dihydropyridin-3-yl)-2-methylphenyl)-4,5,6,7-tetrahydrobenzo[b]thiophene-2-carboxamide]
The IC50 of the first is 17-fold lower: 0.0099 µM for the first, 0.167 µM for the second. The first is the more potent here.

Going from `C=CC(=O)Nc1cc(Nc2cc(-c3cccc(NC(=O)c4cc5c(s4)CCCC5)c3C)cn(C)c2=O)ccc1C(=O)N1CCOCC1` [Compound 65, N-(3-(5-((3-acrylamide-4-(morpholin-4-carbonyl)phenyl)amino)-1-methyl-6-oxo-1,6-dihydropyridin-3-yl)-2-methylphenyl)-4,5,6,7-tetrahydrobenzo[b]thiophene-2-carboxamide] to `C=CC(=O)Nc1cc(Nc2cc(-c3cccc(NC(=O)c4ccc(N5CCCC5)cc4)c3C)cn(C)c2=O)ccc1C(=O)N1CCOCC1` [Compound 45, N-(3-(5-((3-acrylamide-4-(morpholin-4-carbonyl)phenyl)amino)-1-methyl-6-oxo-1,6-dihydropyridin-3-yl)-2-methylphenyl)-4-(pyrrolidin-1-yl)benzoylamide], the IC50 rises from 0.025 µM to 0.101 µM (4-fold).

For `C=CC(=O)Nc1cc(Nc2cc(-c3cccc(NC(=O)c4ccc5c(c4)OCO5)c3C)cn(C)c2=O)ccc1C(=O)N1CCOCC1` [Compound 18, N-(3-(5-((3-acrylamide-4-(morpholin-4-carbonyl)phenyl)amino)-1-methyl-6-oxo-1,6-dihydropyridin-3-yl)-2-methylphenyl)-benzo[d][1,3]dioxolanyl-5-carboxamide], the IC50 was 0.187 µM.
